{
  "source": "patent US20250280827A1",
  "about": "“An antifungal composition comprising natamycin and at least one insecticide” (priority 2021, published 2025)",
  "key": {"[1]": {"system": "Fusarium culmorum", "assay": "Antifungal effect against Fusarium culmorum on PDA petri dishes (fungal growth area, Colby synergy)", "format": "cell-based", "conditions": "natamycin-insecticide 0.5-0 ppm", "text": "The Colby equation (Colby, 1967. Weeds 15:20-22) calculates the expected antifungal activity (E in %) of a combination comprising more than one active ingredients:\n(§1) wherein X and Y are the observed antifungal activities (in %) of the individual active ingredients x and y, respectively. If the observed antifungal activity (O in %) of the combination exceeds the expected antifungal activity (E in %) of the combination and the synergy factor O/E is thus >1.0, the combined application of the active ingredients leads to a synergistic antifungal effect.\nAgar medium was prepared by mixing in a 100 ml Duran bottle 3.9 g of potato dextrose agar (PDA) from Carl-Roth (Carl-Roth GmbH+Co. KG, Karlsruhe, Germany) with 100 ml deionized water and autoclaving the Duran bottle at 120° C. for 15 minutes. After autoclaving, the solution was cooled by putting it in a 48° C. oven for about two hours. Afterward the semi-liquid PDA solution was carefully mixed with natamycin and/or insecticide dosages as specified in Table 5 showing the interaction results on petri dishes. The medium in the Duran bottle was divided over 5 petri dishes (90×15 mm), 20 ml per petri dish by using 25 ml serological pipets (ROTILABO®; Carl-Roth). Each natamycin and/or insecticide treatment was performed in fivefold.\nFungal spore suspensions were prepared by drenching a fully grown petri dish with sterile water. The fungus was scraped off and filtered through a Miracloth (pore size: 22-25 μm) (Merck KGaA, Darmstadt, Germany; catalogue number: 475855). The number of spores were counted with a hemocytometer and fungal suspension was adjusted to 10^6 spores per ml. Afterward, 5 μl of prepared spore suspension was pipetted on the center of the agar plate. The plates were incubated at 25° C. Measurement of the fungal growth was done using callipers at different time points. Assessment of the infection area was 6 days after inoculation.\nThe insecticide levels and the period after which the assessments were made are presented as specified for the different insecticides are presented in Table 5 below. Synergistic calculation was done using the Colby equation. Experiment was performed in 5-fold.\nThe experiments were performed as described in Example 3. Assessment of the infection area was 6 days after inoculation. Experiment was performed in 5-fold.\nThe experiments were performed as described in Example 3. The product KARATE ZEON® of company Syngenta containing the active ingredient lambda-cyhalothrin belonging to IRAC Group 3 was tested. Assessment of the infection area was 3 days after inoculation. Experiment was performed in 5-fold."}, "[2]": {"system": "Colletotrichum spp.", "assay": "Antifungal effect against Colletotrichum infection on wounded skin of pepper fruits (Colby synergy)", "format": "in vivo", "text": "as §1, with “effect. […]” for “effect.”\nFor the treatment, 5 wounds per pepper side were done as previously described. In addition, one wound was done as negative control. Depending on the number of sides of the pepper, 3 to 4 treatments were done per paprika. Per wound 10 μl of treatment was placed on the wound. The treatments were let to dry in a down flow cabinet for about 30 minutes. After drying 5 μl spore suspension at a concentration of 10^7 spores per ml were placed on the wounds. The fungus was isolated from Colletotrichum-infected plant material and identified using techniques known to the person skilled in the art. The pepper were placed as described previously in a transparent container, with the difference that the containers were then placed in a transparent plastic zipper bag. The bags with peppers were placed at room temperature and in the dark for two days. After that the size of the lesions were measured. Assessment of the infection area was 4 days after inoculation. Experiment was performed in 5-fold.\n(§2) The fungus was isolated from Colletotrichum-infected plant material and identified using techniques known to the person skilled in the art. Assessment of the infection area was performed 5 days after inoculation. Experiment was performed in 5-fold.\nas §2, with “The active ingredient imidacloprid was formulated as described in Table 2. Imidacloprid belonging to IRAC Group 4. The” for “The”\nThe fungus was isolated from Colletotrichum-infected plant material and identified using techniques known to the person skilled in the art. Assessment of the efficacy was 5 days after inoculation. Experiment was performed in 5-fold.\nThe fungus was isolated from Colletotrichum-infected plant material and identified using techniques known to the person skilled in the art. Assessment of the infection area was performed 6 days after inoculation. Experiment was performed in 5-fold.\nThe fungus was isolated from Colletotrichum-infected plant material and identified using techniques known to the person skilled in the art. Assessment of the infection area was performed 4 days after inoculation. Experiment was performed in 5-fold."}, "[3]": {"conditions": "3 days after inoculation, Table 11"}, "[4]": {"conditions": "6 days after inoculation, Table 6"}, "[5]": {"conditions": "natamycin-insecticide 1:0 ppm, 4 days after inoculation, Table 13"}, "[6]": {"conditions": "natamycin-insecticide 1:0 ppm, 5 days after inoculation, Table 15"}, "[7]": {"conditions": "natamycin-insecticide 1:0 ppm, 5 days after inoculation, Table 16"}, "[8]": {"conditions": "natamycin-insecticide 1:0 ppm, 5 days after inoculation, Table 17"}, "[9]": {"conditions": "natamycin:abamectin 1:0 ppm, 4 days after inoculation, Table 20"}, "[10]": {"conditions": "natamycin:fipronil 1:0 ppm, 6 days after inoculation, Table 19"}},
  "data": [
    {"smiles": "C[C@@H]1C/C=C/C=C/C=C/C=C/[C@H](O[C@@H]2O[C@H](C)[C@@H](O)[C@H](N)[C@@H]2O)C[C@@H]2O[C@](O)(C[C@@H](O)C[C@H]3O[C@@H]3/C=C/C(=O)O1)C[C@H](O)[C@H]2C(=O)O", "note": "[natamycin]", "values": [
      {"measurement": "Avg infected area", "setting": "[1]; [3]", "value": 297.7, "unit": "mm2"},
      {"measurement": "Observed antifungal activity", "setting": "[1]; [3]", "value": 17.9, "unit": "%"},
      {"measurement": "Avg infected area", "setting": "[1]; [4]", "value": 810.2, "unit": "mm2"},
      {"measurement": "Observed antifungal activity", "setting": "[1]; [4]", "value": 18.8, "unit": "%"},
      {"measurement": "Avg infected area", "setting": "[2]; [5]", "value": 10.6, "unit": "mm2"},
      {"measurement": "Observed antifungal activity", "setting": "[2]; [5]", "value": 33.8, "unit": "%"},
      {"measurement": "Avg infected area", "setting": "[2]; [6]", "value": 30.2, "unit": "mm2"},
      {"measurement": "Observed antifungal activity", "setting": "[2]; [6]", "value": 28.6, "unit": "%"},
      {"measurement": "Avg infected area", "setting": "[2]; [7]", "value": 30.2, "unit": "mm2"},
      {"measurement": "Observed antifungal activity", "setting": "[2]; [7]", "value": 28.6, "unit": "%"},
      {"measurement": "Avg infected area", "setting": "[2]; [8]", "value": 22.4, "unit": "mm2"},
      {"measurement": "Observed antifungal activity", "setting": "[2]; [8]", "value": 59.5, "unit": "%"},
      {"measurement": "Avg infected area", "setting": "[2]; [9]", "value": 13.5, "unit": "mm2"},
      {"measurement": "Observed antifungal activity", "setting": "[2]; [9]", "value": 39.8, "unit": "%"},
      {"measurement": "Avg infected area", "setting": "[2]; [10]", "value": 24.7, "unit": "mm^2"},
      {"measurement": "Observed antifungal activity", "setting": "[2]; [10]", "value": 50.7, "unit": "%"}
    ]}
  ]
}
